Where “and” joins values, the source holds several entries; their conditions need not be identical. Identical values can stand only once. One block for each molecule: values may come before it.
Experiments:
[1] = Metabolic stability in rat liver microsomes (RLMs); settings: rat, microsomes
porcine pepsin = molecular target: T1, porcine pepsin (Sus scrofa, UniProt P00791); assay: Peptide stability in simulated gastric fluid (SGF); assay type: in vitro ADME; settings: for SGF stability, Residual peptide Average / SGF stability, Residual peptide: after 8 h vs 0 h (TIC); for SGF stability, Residual peptide Average: average of R1-R3; for SGF stability, Residual peptide: single replicates R1-R3; for remaining at 8 h: simulated gi fluid, 37 °C, pH 1.2, read-out: Proteolytic stability: SGF (8 h) % remaining
T1 construct: 0.32 g of porcine pepsin (Sigma-Aldrich, P7125) was dissolved under gentle agitation; purchased Sigma-Aldrich P7125
T1 sequence (P00791 60-385): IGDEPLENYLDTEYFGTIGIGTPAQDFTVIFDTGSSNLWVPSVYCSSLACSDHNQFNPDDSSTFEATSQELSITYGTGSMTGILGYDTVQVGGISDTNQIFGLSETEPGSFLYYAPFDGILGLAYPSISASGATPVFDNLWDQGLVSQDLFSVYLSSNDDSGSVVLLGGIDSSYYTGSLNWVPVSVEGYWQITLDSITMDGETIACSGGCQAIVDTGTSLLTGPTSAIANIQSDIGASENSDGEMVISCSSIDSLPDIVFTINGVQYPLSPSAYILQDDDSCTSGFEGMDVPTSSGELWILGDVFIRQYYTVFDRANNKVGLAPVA
Description: (§1) Simulated gastric and intestinal fluids were prepared according to the States Pharmacopeia specifications (Test Solutions, United States Pharmacopeia 35, NF 30, 2012). SGF: 0.2 g of sodium chloride was dissolved in 50 ml of water, and the pH was adjusted to 1.2 by addition of 0.7 ml of 10 M hydrochloric acid. Then, 0.32 g of porcine pepsin (Sigma-Aldrich, P7125) was dissolved under gentle agitation, and the volume was filled up to 100 ml with Milli-Q water. SIF: 0.68 g of monobasic potassium phosphate was dissolved in 25 ml of Milli-Q water, and the pH was adjusted to 6.8 by adding 7.7 ml of a 0.2 M sodium hydroxide solution. Next, 1 g of porcine pancreatin (Sigma-Aldrich, P3292) was added under gentle agitation, and the volume was adjusted to 100 ml with Milli-Q water to afford a fine suspension. To test the stability in simulated gastrointestinal fluids, 396 μl of SGF or SIF was pre-heated at 37 °C for 10 min, and 4 μl of a 1 mM peptide solution in DMSO was added. […] Supernatant was analyzed by LC–MS to measure the peptide concentrations at the different timepoints. Residual peptide was calculated by normalizing the concentrations measured at T1 to T0.

[2] = Peptide stability in simulated intestinal fluid (SIF); assay type: in vitro ADME, porcine; settings: simulated gi fluid; 8 h, 37 °C, pH 6.8; read-out: Proteolytic stability: SIF (8 h) % remaining
Description: as §1

porcine pancreatin = assay: as above; assay type: in vitro ADME; settings: after 8 h vs 0 h (TIC); for SIF stability, Residual peptide Average: average of R1-R3; for SIF stability, Residual peptide: single replicates R1-R3
Description: as §1

rat α-thrombin = molecular target: T2, rat α-thrombin (Rattus norvegicus, UniProt P18292); assay: Protease inhibition, Ki for rat α-thrombin (fluorogenic substrate Z-Gly-Gly-Arg-AMC); assay type: biochemical; settings: replicates R1-R3
T2 construct: rat α-thrombin (Molecular Innovations) were used at final concentrations of 2 nM and 3 nM; purchased Molecular Innovations
How it was run: (§2)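 Ki derived through Cheng–Prusoff from IC50s (four-parameter logistic fit) against activity of peptide-free controls. Product fluorescence was read every 3 min over 30 min at 25 °C, substrate Z-Gly-Gly-Arg-AMC at 50 μM. Enzyme was 2 nM human or 3 nM rat α-thrombin, pH 7.4 buffer.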

[3] = Passive artificial membrane permeability (PAMPA); settings: for PAMPA permeability: % permeability: 50 μM, 12–18 h, acceptor concentration relative to equilibrium; for Papp at 50 μM / Permeability% Average / Permeability% R1 / Permeability% R3: PAMPA; for Papp at 50 μM: pH 7.4; for Permeability% Average: average of R1-R3; for Permeability% R1: replicate R1; for Permeability% R1 / Permeability% R3: TIC of top well sample relative to sample at theoretical equilibrium; for Permeability% R3: replicate R3
human α-thrombin = human α-thrombin (Homo sapiens, UniProt P00734); assay: Protease inhibition, Ki for human α-thrombin (fluorogenic substrate Z-Gly-Gly-Arg-AMC); assay type: biochemical; settings: replicates R1-R3
How it was run: as §2

[4] = CL (ul/min/mg protein) R1, RLM CL, replicate R1
[5] = CL (ul/min/mg protein) R2, RLM CL, replicate R2
[6] = CL (ul/min/mg protein) R3, RLM CL, replicate R3
[7] = Half Life (min) R1, RLM metabolic stability, replicate R1, 0-60 min
[8] = Half Life (min) R2, RLM metabolic stability, replicate R2, 0-60 min
[9] = Half Life (min) R3, RLM metabolic stability, replicate R3, 0-60 min
[10] = Metabolic stability: Half life T1/2 (min), RLMs, mean and SD, three measurements
[11] = Metabolic stability: RLM CL (ul/min/mg), RLMs, mean and SD, three measurements
[12] = peptide 1.33E+02 uM, slope of proteolytic substrate cleavage over time

microsomal CLint [1, 4]: 99.1 µL/min/mg
microsomal CLint [1, 5]: 76.5 µL/min/mg
microsomal CLint [1, 6]: 112 µL/min/mg
half-life [1, 7]: 14 min
half-life [1, 8]: 18.1 min
half-life [1, 9]: 12.4 min
half-life [1, 10]: 14.8 ± 2.4 min
microsomal CLint [1, 11]: 96 ± 15 µL/min/mg
SGF stability, Residual peptide Average (porcine pepsin): 101.05
SGF stability, Residual peptide (porcine pepsin): 110.75 and 95.01 and 97.38
remaining at 8 h (porcine pepsin): 101 ± 8%
remaining at 8 h [2]: 93 ± 9%
SIF stability, Residual peptide Average (porcine pancreatin): 93.12
SIF stability, Residual peptide (porcine pancreatin): 102.84 and 84.15 and 92.36
Rat alpha thrombin inhibition, slope normalized to DMSO (rat α-thrombin; [12]): 3.8 and 4.8 and 16.3
Rat alpha thrombin inhibition, slope normalized to DMSO (rat α-thrombin; peptide 1.67E+01 uM): 8.5 and 7.5 and 19.4
Rat alpha thrombin inhibition, slope normalized to DMSO (rat α-thrombin; peptide 2.08E+00 uM): 35.4 and 36.0 and 40.9
Rat alpha thrombin inhibition, slope normalized to DMSO (rat α-thrombin; peptide 3.33E+01 uM): 4.1 and 4.6 and 17.1
Rat alpha thrombin inhibition, slope normalized to DMSO (rat α-thrombin; peptide 4.17E+00 uM): 23.4 and 23.3 and 26.8
Rat alpha thrombin inhibition, slope normalized to DMSO (rat α-thrombin; peptide 6.67E+01 uM): 3.8 and 4.6 and 15.5
Rat alpha thrombin inhibition, slope normalized to DMSO (rat α-thrombin; peptide 8.33E+00 uM): 13.7 and 14.0 and 21.8
PAMPA permeability: % permeability [3]: 0.62 ± 0.14%
Papp at 50 μM [3]: 0.0407 ×10⁻⁶ cm/s
Permeability% Average [3]: 0.6%
Permeability% R1 [3]: 0.77%
Permeability% R3 [3]: 0.57%
Human alpha thrombin inhibition, slope normalized to DMSO (human α-thrombin; peptide 1.02E-03 uM): 94.7 and 95.3 and 98.5
Human alpha thrombin inhibition, slope normalized to DMSO (human α-thrombin; peptide 1.04E+00 uM): 75.5 and 74.4 and 76.2
Human alpha thrombin inhibition, slope normalized to DMSO (human α-thrombin; peptide 1.27E-04 uM): 97.4 and 68.3 and 98.0
Human alpha thrombin inhibition, slope normalized to DMSO (human α-thrombin; peptide 1.30E-01 uM): 93.0 and 91.1 and 92.8
Human alpha thrombin inhibition, slope normalized to DMSO (human α-thrombin; [12]): 13.5 and 15.1 and 12.6
Human alpha thrombin inhibition, slope normalized to DMSO (human α-thrombin; peptide 1.63E-02 uM): 97.4 and 90.6 and 97.7
Human alpha thrombin inhibition, slope normalized to DMSO (human α-thrombin; peptide 1.67E+01 uM): 26.1 and 29.0 and 29.2
Human alpha thrombin inhibition, slope normalized to DMSO (human α-thrombin; peptide 2.03E-03 uM): 98.6 and 102.5 and 100.6
Human alpha thrombin inhibition, slope normalized to DMSO (human α-thrombin; peptide 2.08E+00 uM): 73.0 and 60.5 and 66.8
Human alpha thrombin inhibition, slope normalized to DMSO (human α-thrombin; peptide 2.54E-04 uM): 97.8 and 93.6 and 92.8
Human alpha thrombin inhibition, slope normalized to DMSO (human α-thrombin; peptide 2.60E-01 uM): 88.6 and 90.7 and 89.6
Human alpha thrombin inhibition, slope normalized to DMSO (human α-thrombin; peptide 3.18E-05 uM): 97.1 and 94.4 and 99.6
Human alpha thrombin inhibition, slope normalized to DMSO (human α-thrombin; peptide 3.26E-02 uM): 101.4 and 92.5 and 97.5
Human alpha thrombin inhibition, slope normalized to DMSO (human α-thrombin; peptide 3.33E+01 uM): 14.8 and 16.8 and 15.8
Human alpha thrombin inhibition, slope normalized to DMSO (human α-thrombin; peptide 4.07E-03 uM): 99.3 and 94.9 and 93.4
Human alpha thrombin inhibition, slope normalized to DMSO (human α-thrombin; peptide 4.17E+00 uM): 57.1 (2×) and 55.7
Human alpha thrombin inhibition, slope normalized to DMSO (human α-thrombin; peptide 5.09E-04 uM): 99.4 and 94.7 and 120.6
Human alpha thrombin inhibition, slope normalized to DMSO (human α-thrombin; peptide 5.21E-01 uM): 84.0 and 81.7 and 83.0
Human alpha thrombin inhibition, slope normalized to DMSO (human α-thrombin; peptide 6.36E-05 uM): 93.6 and 95.3 and 99.3
Human alpha thrombin inhibition, slope normalized to DMSO (human α-thrombin; peptide 6.51E-02 uM): 95.9 and 74.7 and 94.1
Human alpha thrombin inhibition, slope normalized to DMSO (human α-thrombin; peptide 6.67E+01 uM): 13.4 and 15.6 and 21.8
Human alpha thrombin inhibition, slope normalized to DMSO (human α-thrombin; peptide 8.14E-03 uM): 96.7 and 95.4 and 97.4
Human alpha thrombin inhibition, slope normalized to DMSO (human α-thrombin; peptide 8.33E+00 uM): 44.0 and 41.9 and 43.6
Compound: O=C1NCCSCc2cccc(n2)CSC[C@H](NC(=O)c2ccc(Cl)s2)C(=O)N[C@@H](CO)C(=O)NCc2ccc1cc2 [compound 25]

microsomal CLint [1, 4]: 266 µL/min/mg
microsomal CLint [1, 5]: 255 µL/min/mg
microsomal CLint [1, 6]: 248 µL/min/mg
half-life [1, 7]: 5.21 min
half-life [1, 8]: 5.44 min
half-life [1, 9]: 5.58 min
half-life [1, 10]: 5.4 ± 0.2 min
microsomal CLint [1, 11]: 260 ± 10 µL/min/mg
SGF stability, Residual peptide Average (porcine pepsin): 96.43
SGF stability, Residual peptide (porcine pepsin): 98.71 and 95.02 and 95.57
remaining at 8 h (porcine pepsin): 96 ± 2%
remaining at 8 h [2]: 96 ± 9%
SIF stability, Residual peptide Average (porcine pancreatin): 96.16
SIF stability, Residual peptide (porcine pancreatin): 94.79 and 87.84 and 105.86
Rat alpha thrombin inhibition, slope normalized to DMSO (rat α-thrombin; [12]): 2.8 and 3.3 and 1.9
Rat alpha thrombin inhibition, slope normalized to DMSO (rat α-thrombin; peptide 1.67E+01 uM): 7.6 and 6.1 and 7.2
Rat alpha thrombin inhibition, slope normalized to DMSO (rat α-thrombin; peptide 2.08E+00 uM): 33.9 and 32.6 and 33.7
Rat alpha thrombin inhibition, slope normalized to DMSO (rat α-thrombin; peptide 3.33E+01 uM): 4.8 and 4.2 and 4.5
Rat alpha thrombin inhibition, slope normalized to DMSO (rat α-thrombin; peptide 4.17E+00 uM): 21.3 and 20.5 and 20.2
Rat alpha thrombin inhibition, slope normalized to DMSO (rat α-thrombin; peptide 6.67E+01 uM): 3.3 and 2.6 and 2.7
Rat alpha thrombin inhibition, slope normalized to DMSO (rat α-thrombin; peptide 8.33E+00 uM): 13.5 and 12.2 and 12.7
PAMPA permeability: % permeability [3]: 16 ± 7%
Papp at 50 μM [3]: 1.05 ×10⁻⁶ cm/s
Permeability% Average [3]: 15.5%
Permeability% R1 [3]: 9.36%
Permeability% R3 [3]: 23.67%
Human alpha thrombin inhibition, slope normalized to DMSO (human α-thrombin; peptide 1.02E-03 uM): 102.8 and 97.7 and 93.9
Human alpha thrombin inhibition, slope normalized to DMSO (human α-thrombin; peptide 1.04E+00 uM): 77.5 and 70.0 and 74.3
Human alpha thrombin inhibition, slope normalized to DMSO (human α-thrombin; peptide 1.27E-04 uM): 100.4 and 110.4 and 99.0
Human alpha thrombin inhibition, slope normalized to DMSO (human α-thrombin; peptide 1.30E-01 uM): 97.9 and 99.8 and 91.2
Human alpha thrombin inhibition, slope normalized to DMSO (human α-thrombin; [12]): 5.1 and 4.3 and 6.3
Human alpha thrombin inhibition, slope normalized to DMSO (human α-thrombin; peptide 1.63E-02 uM): 96.1 and 101.1 and 95.8
Human alpha thrombin inhibition, slope normalized to DMSO (human α-thrombin; peptide 1.67E+01 uM): 20.9 and 21.1 and 17.2
Human alpha thrombin inhibition, slope normalized to DMSO (human α-thrombin; peptide 2.03E-03 uM): 100.4 and 98.0 and 100.5
Human alpha thrombin inhibition, slope normalized to DMSO (human α-thrombin; peptide 2.08E+00 uM): 66.4 and 63.2 and 62.8
Human alpha thrombin inhibition, slope normalized to DMSO (human α-thrombin; peptide 2.54E-04 uM): 104.5 and 97.0 and 96.4
Human alpha thrombin inhibition, slope normalized to DMSO (human α-thrombin; peptide 2.60E-01 uM): 95.1 and 92.0 and 90.3
Human alpha thrombin inhibition, slope normalized to DMSO (human α-thrombin; peptide 3.18E-05 uM): 99.7 and 98.9 and 101.2
Human alpha thrombin inhibition, slope normalized to DMSO (human α-thrombin; peptide 3.26E-02 uM): 99.6 and 98.9 and 96.4
Human alpha thrombin inhibition, slope normalized to DMSO (human α-thrombin; peptide 3.33E+01 uM): 10.4 and 11.3 and 12.9
Human alpha thrombin inhibition, slope normalized to DMSO (human α-thrombin; peptide 4.07E-03 uM): 102.1 and 98.1 and 100.5
Human alpha thrombin inhibition, slope normalized to DMSO (human α-thrombin; peptide 4.17E+00 uM): 49.4 and 48.2 and 42.7
Human alpha thrombin inhibition, slope normalized to DMSO (human α-thrombin; peptide 5.09E-04 uM): 105.6 and 97.1 and 101.8
Human alpha thrombin inhibition, slope normalized to DMSO (human α-thrombin; peptide 5.21E-01 uM): 84.4 and 88.3 and 83.4
Human alpha thrombin inhibition, slope normalized to DMSO (human α-thrombin; peptide 6.36E-05 uM): 104.9 and 95.6
Human alpha thrombin inhibition, slope normalized to DMSO (human α-thrombin; peptide 6.51E-02 uM): 99.3 and 101.7 and 95.4
Human alpha thrombin inhibition, slope normalized to DMSO (human α-thrombin; peptide 6.67E+01 uM): 5.8 and 5.7 and 8.8
Human alpha thrombin inhibition, slope normalized to DMSO (human α-thrombin; peptide 8.14E-03 uM): 101.9 and 98.8 and 103.6
Human alpha thrombin inhibition, slope normalized to DMSO (human α-thrombin; peptide 8.33E+00 uM): 31.4 and 24.4 and 30.5
Compound: O=C1CCSC/C=C/CSCCNC(=O)[C@H](CNC(=O)c2ccc(Cl)s2)NC(=O)[C@H](Cc2ccccn2)N1 [compound 22]

Source: article PMC11062899, “De novo development of small cyclic peptides that are orally bioavailable” (Nature Chemical Biology, 2023)
